According to US20070116836A1, “High-Potency Sweetener Composition for Treatment and/or Prevention of Osteoporosis and Compositions Sweetened Therewith” (THE COCA-COLA COMPANY, priority 2005, published 2007):

What was measured:
[1] = Sensory evaluation of sweetness linger by expert panel, Example Set G (citric acid/potassium citrate base); type: in vivo; set-up: key: 0=no sweetness linger; 1=very slight sweetness linger; 2=slight sweetness linger; 3=moderate sweetness linger; 4=moderately high sweetness linger; 5=high sweetness linger; conditions: scale 0-5; 400 ppm REBA in citric acid/potassium citrate composition equivalent to diet lemon-lime beverage, additive per example; sugar control 8 g in 100 ml citrate buffer
Experimental: Sensory evaluation of the samples prepared in Example Set G was carried out under the following protocol, similar to that described hereinabove. In this test protocol, none of the samples were swallowed. All samples were expectorated and the mouth was rinsed with water after the tasting. Immediately upon sensing maximal sweetness, the sample was expectorated, the mouth was rinsed with water and the rate of sweetness decay (“Sweetness Linger”) was measured, where attention was focused on the sweetness 3-4 min after the water rinse. After sample tasting was complete, a salty oyster cracker was chewed followed by a water rinse, and at least 5 minutes followed before tasting the next sample. […]
The effects of formulation change on the sweetness linger of 400 ppm REBA (equivalent to 8 g sucrose) in a citric acid/potassium citrate composition equivalent to that in a diet lemon-lime beverage were evaluated. The sweetness linger rating of this solution was determined to be 5.
8 g of sugar was dissolved in 100 ml of citrate buffer. The sweetness linger rating of this control sample was determined to be 0.

[2] = Sensory evaluation of sweetness linger by expert panel, Example Set H (phosphoric acid base); type: in vivo; set-up: key: 0=no sweetness linger; 1=very slight sweetness linger; 2=slight sweetness linger; 3=moderate sweetness linger; 4=moderately high sweetness linger; 5=high sweetness linger; conditions: scale 0-5; 500 ppm REBA (H41: 360 ppm) in carbon-treated water, phosphoric acid (75%) to pH 2.4-2.5, additive per example; sugar control 10 g in 100 ml
[3] = Rate of dissolution in H2O at 25° C. of rebaudioside A polymorph and amorphous forms; type: physicochemical; conditions: grade in words

Compound	Sweetness linger [1]	Sweetness linger [2]	Rate of dissolution in H2O at 25° C. [3]
OC[C@H]1O[C@@](CO)(O[C@H]2O[C@H](CO)[C@@H](O)[C@H](O)[C@H]2O)[C@@H](O)[C@@H]1O [sugar, sucrose]	0	0	
rebaudioside A	5	5	
rebaudioside A [Form 1]			Very low
rebaudioside A [Form 2]			Intermediate
rebaudioside A [Form 3]			High
rebaudioside A [Form 4]			High
